For one data set, the system named is J774.1 macrophages. In words: Cytotoxicity (Alamar Blue) in macrophages. The format is cell-based, murine. The following applies: 72 h. Here is the method: In flat-bottom 96-well culture plates, J774.1 macrophages were seeded at a cell density of 5 × 10^4 mL^−1 (10,000 macrophages/well) in 200 µL of RPMIc. After 24 h at 37 °C, 5% CO2, medium was replaced by 180 µL of RPMIc, without phenol red, and increasing concentrations of test compounds in 2-µL volumes. […] At least two independent experiments were performed in duplicate. Based on the inhibition of cell growth caused by the tested compounds, the percentage of growth inhibition compared to untreated cells was calculated. […] Selectivity indices (SI) were calculated, dividing the macrophage CC50 by the parasites GI50 (SI = CC50/GI50).
In general terms: The colour change of resazurin is a common sign of viable cells or microbes.

The test system of data set [1] is J774.1 macrophages, healthy or infected with LTB0016, VE98MR or VE2000MM. Description: Superoxide (O2−) production, ferricytochrome c reduction. The format is cell-based, murine. As to conditions: LTB0016- and VE98MR-infected macrophages; 48 h; 18: 1 and 2 µM. Here is the method: The intracellular oxidative burst was evaluated by the production of the superoxide anion O2^−, using the method of reduction of ferricytochrome c, previously described. Macrophages from preceding experiments were used after removing the supernatant; the cells pretreated with compounds or AmB as positive control of the experiment were resuspended in 100 µL of Hanks saline (HBSS: 137 mM NaCl, 5.4 mM KCl, 1 mM MgSO4⋅7H2O, 1.3 mM CaCl2⋅H2O, 0.3 mM Na2HPO4, 0.44 mM KH2PO4, 4.2 mM NaHCO3, 5 mM glucose, pH 7.2) and incubated for 1 h in the presence of 2 mg mL^−1 (160 µM) of cytochrome c type III, at 37 °C and 5% CO2. The supernatant was saved to measure the change in optical density at 550 nm. Three independent experiments were performed in duplicate. The superoxide anion concentration was calculated using the reduced molar extinction coefficient of cytochrome c, 21 mM^−1 cm^−1. Therefore, [O2^−] = (ΔOD/6.3) × 100, where ΔOD is the variation of the optical density (reading-blank), and the result obtained corresponds to the concentration of superoxide anion expressed in nanomoles of O2^− released/2 × 10^5 cells. MLF (5 µM) and amphotericin-B (AmB, 0.1 µM), known to induce NO production in macrophages, were included as controls.

Data set [2] relates to L. (L.) amazonensis LTB0016, VE98MR and VE2000MM promastigotes. Description: Mitochondrial membrane potential (ΔΨm), JC-1 fluorescence. It counts as cell-based, Leishmania amazonensis. The following applies: promastigotes of LTB0016, VE98MR, 48 h, 18: 1 and 2 µM, 22: 2 and 4 µM, vs untreated. Here is the method:
To evaluate the mitochondrial membrane potential (ΔΨm), the fluorescent compound JC-1 (5,5′,6,6′-tetrachloro-1,1′,3,3′-tetraethylbenzimidazolocarbocyanine iodide) was used, according to a modification of a previously described method. Exponential phase promastigotes were suspended at 26 °C, in RPMIc without phenol red, in a volume of 1 mL, at a cell density of 1 × 10^7 parasites mL^−1. The parasites were left to grow for 48 h, in the presence and absence of the test compounds. Then, after centrifuging (500× g for 10 min) and washing the parasites twice with PBS, they were resuspended in 200 µL of HEPES-G, and placed in 96-well plates. […] Finally, fluorescence was measured in a Victor^2 Wallac spectrofluorometer (Perkin Elmer, Turku, Finland) at the appropriate wavelengths (ex: 485 nm/em: 535 and 580 nm). As the mitochondrial membrane is polarized, JC-1 produces intra-mitochondrial aggregates “J-aggregates” that emit a red fluorescence (λ 590 nm). Mitochondrial membrane depolarization induces JC-1 monomeric conformation in the cytoplasm, then the fluorescence turns green (λ 530 nm). The red/green ratio of fluorescence then is an indirect measurement of the mitochondrial membrane potential. A more depolarized mitochondria means a lower ratio of red/green fluorescence.
Relative fluorescence (RF) was calculated, where RF = 580 nm fluorescence/535 nm fluorescence (red/green). […]

Data set [3] has as its system L. (L.) donovani axenic amastigotes. The following applies: cited from earlier work.
In data set [4] the test system is L. (L.) amazonensis LTB0016 promastigotes. In words: Promastigote in vitro susceptibility (Alamar Blue/resazurin), reference strain. The format is cell-based, Leishmania amazonensis. The following applies: LTB0016, 50 µM. Here is the method: The fluorometric method of Alamar Blue® (resazurin) was used. Promastigotes grown in biphasic agar-blood medium, at the exponential phase of growth, were seeded in flat-bottom 96-well culture plates, at a cell density of 1 × 10^6 parasites mL^−1 (200,000 parasites/well), in 180 µL of RPMIc without phenol red. Subsequently, either a sole concentration (50 µM), or increasing concentrations of compounds or drugs were applied, according to each treatment group, in volumes of 2 µL. Plates were kept at 26 °C, in a humid chamber, for 72 h. […] Live parasites are metabolically active and capable of reducing non-fluorescent resazurin (blue) to fluorescent resorufin (red). Fluorescence intensity is directly proportional to the number of viable cells. […] At least two independent experiments were performed in duplicate. The effect of trivalent antimonial [SbIII, potassium antimonyl tartrate trihydrate, Sigma-Aldrich, (St. Louis, MO, USA)] was included as positive control of the assay.

Entries after “also recorded” stand apart in the source; their conditions may differ.

`C=C(C)C1CCC2(C=NO)CCC3(C)C(CCC4C5(C)CCC(=NO)C(C)(C)C5CCC43C)C12` (centres unmarked) [Compound 18] yielded a CC50 with J774.1 macrophages of 48.1 µM. The “Superoxide production, infected macrophages” value in data set [1] was “induced superoxide production in infected macrophages; also recorded: inducing an oxidative burst and thus increasing O2^− production”. The “Effect on mitochondrial membrane potential (ΔΨm)” value in data set [2] was “significantly depolarized; also recorded: depolarizes ΔΨm in a concentration-dependent way”. In addition, in data set [3], the GI50 was 22.8 µM. In data set [4], the growth inhibition entry was “at least 75%”.

In general, CC50 refers to the concentration giving 50% cytotoxicity. A lower CC50 goes with harm at low concentration. Broadly, the GI50 is the concentration giving 50% growth inhibition.

Values taken from article PMC7913927, “Leishmanicidal Activity of Betulin Derivatives in Leishmania amazonensis; Effect on Plasma and Mitochondrial Membrane Potential, and Macrophage Nitric Oxide and Superoxide Production” (Microorganisms, 2021).
